Results on 15 molecules are retold here after US12448389B2, “BRM targeting compounds and associated methods of use” (Prelude Therapeutics Incorporated, priority 2020, dated 2025).

SMILES strings stand for the structures.

Assay [1] deals with T1, SMARCA2-HiBiT (Homo sapiens, UniProt P51531).
T1 construct: SMARCA2-HiBiT knock-in Hela monoclonal cell (CS302366); host or cells: HeLa monoclonal knock-in line (CRISPR HiBiT knock-in at the endogenous locus, heterozygous)
As to the kind of experiment: SMARCA2 HiBiT degradation assay in HeLa cells. It is filed as cell-based. Conditions: 18 hours incubation; for DC50: read-out: HeLa_HiBit-SM2 DC50; for Dmax: HeLa, read-out: HeLa-HiBit-SM2 Dmax (%). In a few lines:
(§1)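 HeLa monoclonal lines with heterozygous HiBiT knock-in were seeded at 2500 cells/well in EMEM with 10% FBS and treated with compound for 18 h at 37 °C. Remaining tagged protein was measured by Nano-Glo HiBiT lytic luminescence after 30–60 min at RT, and values came from curve fitting.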

The target in assay [2] is T2, SMARCA4-HiBiT (Homo sapiens, UniProt P51532).
T2 construct: SMARCA4-HiBiT knock-in Hela monoclonal cell (CS3023226); host or cells: HeLa monoclonal knock-in line (CRISPR HiBiT knock-in at the endogenous locus, heterozygous)
T2 sequence (P51532 whole entry): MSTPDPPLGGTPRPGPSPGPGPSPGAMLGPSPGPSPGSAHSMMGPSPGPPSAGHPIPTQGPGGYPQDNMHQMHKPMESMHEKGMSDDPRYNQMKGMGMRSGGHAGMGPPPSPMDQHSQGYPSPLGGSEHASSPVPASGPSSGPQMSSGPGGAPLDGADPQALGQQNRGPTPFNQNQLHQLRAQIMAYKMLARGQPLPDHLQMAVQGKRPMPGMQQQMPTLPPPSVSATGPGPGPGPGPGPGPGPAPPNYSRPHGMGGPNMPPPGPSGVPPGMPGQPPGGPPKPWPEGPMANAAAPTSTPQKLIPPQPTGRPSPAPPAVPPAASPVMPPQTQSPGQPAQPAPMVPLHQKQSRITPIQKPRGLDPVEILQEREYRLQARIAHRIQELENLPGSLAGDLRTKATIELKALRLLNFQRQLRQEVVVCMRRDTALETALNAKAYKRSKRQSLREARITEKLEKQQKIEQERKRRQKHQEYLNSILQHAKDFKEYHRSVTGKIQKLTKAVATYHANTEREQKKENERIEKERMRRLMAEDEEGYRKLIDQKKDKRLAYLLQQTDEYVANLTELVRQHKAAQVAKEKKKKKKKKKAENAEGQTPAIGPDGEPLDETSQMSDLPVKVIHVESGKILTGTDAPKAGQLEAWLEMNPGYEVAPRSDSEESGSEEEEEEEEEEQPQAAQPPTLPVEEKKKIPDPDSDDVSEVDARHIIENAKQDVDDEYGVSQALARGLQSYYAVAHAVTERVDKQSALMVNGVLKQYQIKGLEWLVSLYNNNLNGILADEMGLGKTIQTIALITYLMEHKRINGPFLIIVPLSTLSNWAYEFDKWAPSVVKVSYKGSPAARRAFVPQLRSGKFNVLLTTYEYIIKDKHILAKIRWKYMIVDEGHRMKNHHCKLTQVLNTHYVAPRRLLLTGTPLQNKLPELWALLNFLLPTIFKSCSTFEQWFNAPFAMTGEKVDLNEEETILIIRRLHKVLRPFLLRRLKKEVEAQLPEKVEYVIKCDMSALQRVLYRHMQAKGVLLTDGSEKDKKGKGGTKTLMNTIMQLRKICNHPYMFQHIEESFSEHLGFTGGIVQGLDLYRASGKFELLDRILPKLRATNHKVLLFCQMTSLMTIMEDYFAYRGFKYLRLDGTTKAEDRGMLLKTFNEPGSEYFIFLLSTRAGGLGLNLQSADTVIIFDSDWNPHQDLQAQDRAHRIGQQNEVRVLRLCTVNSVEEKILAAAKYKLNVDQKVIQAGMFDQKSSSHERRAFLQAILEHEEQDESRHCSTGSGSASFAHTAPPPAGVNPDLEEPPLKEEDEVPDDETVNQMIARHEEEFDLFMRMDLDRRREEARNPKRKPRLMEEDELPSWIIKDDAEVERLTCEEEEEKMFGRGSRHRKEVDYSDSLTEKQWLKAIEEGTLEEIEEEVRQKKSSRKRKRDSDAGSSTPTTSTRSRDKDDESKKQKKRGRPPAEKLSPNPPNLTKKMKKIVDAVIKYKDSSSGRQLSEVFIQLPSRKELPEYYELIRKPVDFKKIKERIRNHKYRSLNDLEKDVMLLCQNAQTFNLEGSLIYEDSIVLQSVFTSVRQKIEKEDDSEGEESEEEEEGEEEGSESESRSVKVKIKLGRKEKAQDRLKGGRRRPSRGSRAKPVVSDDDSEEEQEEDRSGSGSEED
Briefly: SMARCA4 HiBiT degradation assay in HeLa cells. In kind it is cell-based. The conditions noted are these: 18 hours incubation; for DC50: read-out: HeLa-HiBit-SM4 DC50; for Dmax: HeLa, read-out: HeLa-HiBit-SM4 Dmax (%). In short, it runs like this:
as §1

T1 sequence (P51531 whole entry): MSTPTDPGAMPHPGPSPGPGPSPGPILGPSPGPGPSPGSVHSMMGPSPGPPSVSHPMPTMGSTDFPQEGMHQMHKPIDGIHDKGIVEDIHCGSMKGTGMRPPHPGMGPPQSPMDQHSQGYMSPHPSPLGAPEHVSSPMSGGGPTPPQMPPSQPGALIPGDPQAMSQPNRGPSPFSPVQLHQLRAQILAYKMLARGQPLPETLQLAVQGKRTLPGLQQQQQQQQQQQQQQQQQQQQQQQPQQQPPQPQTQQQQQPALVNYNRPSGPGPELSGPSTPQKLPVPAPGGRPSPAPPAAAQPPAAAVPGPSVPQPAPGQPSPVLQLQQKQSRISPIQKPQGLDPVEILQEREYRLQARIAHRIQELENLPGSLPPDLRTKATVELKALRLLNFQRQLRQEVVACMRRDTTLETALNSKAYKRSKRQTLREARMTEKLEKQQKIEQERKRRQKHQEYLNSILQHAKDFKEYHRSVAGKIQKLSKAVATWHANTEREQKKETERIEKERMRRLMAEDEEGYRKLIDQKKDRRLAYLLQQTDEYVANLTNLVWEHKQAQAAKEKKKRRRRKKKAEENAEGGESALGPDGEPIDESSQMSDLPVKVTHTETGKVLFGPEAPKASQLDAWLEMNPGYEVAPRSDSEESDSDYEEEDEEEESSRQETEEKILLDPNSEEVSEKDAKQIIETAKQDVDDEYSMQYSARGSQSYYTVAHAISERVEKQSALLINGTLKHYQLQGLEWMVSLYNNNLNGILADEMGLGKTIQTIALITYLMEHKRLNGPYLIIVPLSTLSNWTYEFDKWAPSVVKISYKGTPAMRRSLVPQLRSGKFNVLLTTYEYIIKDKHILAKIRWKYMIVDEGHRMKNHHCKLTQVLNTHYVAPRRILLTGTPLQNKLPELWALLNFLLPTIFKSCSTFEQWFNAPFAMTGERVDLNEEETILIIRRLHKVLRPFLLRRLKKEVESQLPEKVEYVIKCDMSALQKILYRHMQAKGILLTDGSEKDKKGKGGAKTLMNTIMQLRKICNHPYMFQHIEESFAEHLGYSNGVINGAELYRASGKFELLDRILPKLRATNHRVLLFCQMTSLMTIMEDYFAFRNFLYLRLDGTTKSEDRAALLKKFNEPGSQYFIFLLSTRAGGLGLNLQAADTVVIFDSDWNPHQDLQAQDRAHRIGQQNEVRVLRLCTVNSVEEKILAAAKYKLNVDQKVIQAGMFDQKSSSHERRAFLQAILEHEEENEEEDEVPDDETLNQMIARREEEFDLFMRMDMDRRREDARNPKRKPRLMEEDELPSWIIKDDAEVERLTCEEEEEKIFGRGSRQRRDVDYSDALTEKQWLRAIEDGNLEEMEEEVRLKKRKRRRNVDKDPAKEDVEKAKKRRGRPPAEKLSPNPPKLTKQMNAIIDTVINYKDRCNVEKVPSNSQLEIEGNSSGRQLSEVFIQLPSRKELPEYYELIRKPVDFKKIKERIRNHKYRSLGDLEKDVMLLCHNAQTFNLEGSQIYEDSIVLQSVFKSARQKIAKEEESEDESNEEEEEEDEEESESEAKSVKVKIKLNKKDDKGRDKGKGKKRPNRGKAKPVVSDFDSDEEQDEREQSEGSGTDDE

As usually defined, the DC50 is the concentration at which degradation of the target reaches its halfway point. For orientation: Dmax means the largest share of the target that was removed. Turning to `CC1(CN2CCC(CN3CCN4c5cc(-c6ccccc6O)nnc5NC[C@H]4C3)CC2)CCN(c2ccc3c(c2)C(=O)N(C2CCC(=O)NC2=O)C3=O)CC1` (stereo partly drawn) [Example 226, 2-(2,6-dioxopiperidin-3-yl)-5-(4-((4-(((S)-2-(2-hydroxyphenyl)-5,6,6a,7,9,10-hexahydro-8H-pyrazino[1′,2′:4,5]pyrazino[2,3-c]pyridazin-8-yl)methyl)piperidin-1-yl)methyl)-4-methylpiperidin-1-yl)isoindoline-1,3-dione], the DC50 in assay [1] and in assay [2] was less than 10 nM throughout. Besides, the Dmax in assay [1] was more than 85%; in assay [2], 75 to 85%.
As to `CN(CCCCN1CCC(CN2CCN3c4cc(-c5ccccc5O)nnc4NC[C@H]3C2)CC1)c1ccc2c(c1)C(=O)N(C1CCC(=O)NC1=O)C2=O` (stereo partly drawn) [Example 227, 2-(2,6-dioxopiperidin-3-yl)-5-((4-(4-(((S)-2-(2-hydroxyphenyl)-5,6,6a,7,9,10-hexahydro-8H-pyrazino[1′,2′:4,5]pyrazino[2,3-c]pyridazin-8-yl)methyl)piperidin-1-yl)butyl)(methyl)amino)isoindoline-1,3-dione], in assay [1], the 50% degradation concentration (DC50) was less than 10 nM and the Dmax lay within 50 to 75%. In assay [2], the DC50 is 10 to 100 nM and the Dmax fell in the range of 50 to 75%.
With `O=C1CCC(N2C(=O)c3ccc(N4CCC(CN5CCC(CCCN6CCN7c8cc(-c9ccccc9O)nnc8NC[C@H]7C6)CC5)CC4)cc3C2=O)C(=O)N1` (stereo partly drawn) [Example 228, 2-(2,6-dioxopiperidin-3-yl)-5-(4-((4-(3-((S)-2-(2-hydroxyphenyl)-5,6,6a,7,9,10-hexahydro-8H-pyrazino[1′,2′:4,5]pyrazino[2,3-c]pyridazin-8-yl)propyl)piperidin-1-yl)methyl)piperidin-1-yl)isoindoline-1,3-dione], in assay [1], the DC50 was less than 10 nM and the Dmax was more than 85%. Besides, in assay [2], the DC50 is less than 10 nM and the Dmax was more than 85%.
As for `O=C1CCC(N2C(=O)c3ccc(N4CCC(CN5CCC(CCN6CCN7c8cc(-c9ccccc9O)nnc8NC[C@H]7C6)CC5)CC4)cc3C2=O)C(=O)N1` (stereo partly drawn) [Example 229, 2-(2,6-dioxopiperidin-3-yl)-5-(4-((4-(2-((S)-2-(2-hydroxyphenyl)-5,6,6a,7,9,10-hexahydro-8H-pyrazino[1′,2′:4,5]pyrazino[2,3-c]pyridazin-8-yl)ethyl)piperidin-1-yl)methyl)piperidin-1-yl)isoindoline-1,3-dione], in assay [1], the DC50 is less than 10 nM and the Dmax is more than 85%. For the same molecule, in assay [2], the DC50 is less than 10 nM and the Dmax was more than 85%.
As to `O=C1CCC(N2Cc3cc(N4CC(CN5CCC(CN6CCN7c8cc(-c9ccccc9O)nnc8NC[C@H]7C6)CC5)C4)ccc3C2=O)C(=O)N1` (stereo partly drawn) [Example 230, 3-(5-(3-((4-(((S)-2-(2-hydroxyphenyl)-5,6,6a,7,9,10-hexahydro-8H-pyrazino[1′,2′:4,5]pyrazino[2,3-c]pyridazin-8-yl)methyl)piperidin-1-yl)methyl)azetidin-1-yl)-1-oxoisoindolin-2-yl)piperidine-2,6-dione], in assay [1], the DC50 is less than 10 nM and the Dmax is more than 85%. Also, in assay [2], the DC50 is less than 10 nM and the Dmax is more than 85%.
As to `O=C1CCC(N2Cc3cc(N4CCC(CN5CCC(CN6CCN7c8cc(-c9ccccc9O)nnc8NC[C@H]7C6)CC5)CC4)ccc3C2=O)C(=O)N1` (stereo partly drawn) [Example 231, 3-(5-(4-((4-(((S)-2-(2-hydroxyphenyl)-5,6,6a,7,9,10-hexahydro-8H-pyrazino[1′,2′:4,5]pyrazino[2,3-c]pyridazin-8-yl)methyl)piperidin-1-yl)methyl)piperidin-1-yl)-1-oxoisoindolin-2-yl)piperidine-2,6-dione], the DC50 in assay [1] and in assay [2] was less than 10 nM in each case. Besides, the Dmax in assay [1] and in assay [2] was more than 85% throughout.
Turning to `O=C1CCC(N2Cc3ccc(N4CCC(CN5C[C@@H]6[C@H](C5)[C@H]6CN5CCN6c7cc(-c8ccccc8O)nnc7NC[C@H]6C5)CC4)cc3C2=O)C(=O)N1` (stereo partly drawn) [Example 232, 3-(6-(4-(((1R,5S,6r)-6-(((S)-2-(2-hydroxyphenyl)-5,6,6a,7,9,10-hexahydro-8H-pyrazino[1′,2′:4,5]pyrazino[2,3-c]pyridazin-8-yl)methyl)-3-azabicyclo[3.1.0]hexan-3-yl)methyl)piperidin-1-yl)-1-oxoisoindolin-2-yl)piperidine-2,6-dione], in assay [1], the DC50 is less than 10 nM and the greatest degradation seen (Dmax) is more than 85%. Further, in assay [2], the DC50 is less than 10 nM and the maximal degradation (Dmax) is more than 85%.
For the molecule `O=C1CCC(N2Cc3ccc(N4CCC(CN5CCC(F)(CN6CCN7c8cc(-c9ccccc9O)nnc8NC[C@H]7C6)CC5)CC4)cc3C2=O)C(=O)N1` (stereo partly drawn) [Example 233, 3-(6-(4-((4-fluoro-4-(((S)-2-(2-hydroxyphenyl)-5,6,6a,7,9,10-hexahydro-8H-pyrazino[1′,2′:4,5]pyrazino[2,3-c]pyridazin-8-yl)methyl)piperidin-1-yl)methyl)piperidin-1-yl)-1-oxoisoindolin-2-yl)piperidine-2,6-dione], in assay [1], the DC50 is less than 10 nM and the Dmax is more than 85%. Also, in assay [2], the DC50 is less than 10 nM and the Dmax was more than 85%.
Take `O=C1CCC(N2Cc3cc(N4CCC(CN5CCC(CN6CCN7c8cc(-c9ccccc9O)nnc8NC[C@H]7C6)CC5)CC4)c(F)cc3C2=O)C(=O)N1` (stereo partly drawn) [Example 234, 3-(6-fluoro-5-(4-((4-(((S)-2-(2-hydroxyphenyl)-5,6,6a,7,9,1O-hexahydro-8H-pyrazino[1′,2′:4,5]pyrazino[2,3-c]pyridazin-8-yl)methyl)piperidin-1-yl)methyl)piperidin-1-yl)-1-oxoisoindolin-2-yl)piperidine-2,6-dione]: in assay [1], the 50% degradation concentration (DC50) is less than 10 nM and the Dmax is more than 85%. Further, in assay [2], the DC50 is less than 10 nM and the Dmax was more than 85%.
As to `O=C1CCC(N2Cc3ccc(N4CCC(CN5CCC(CN6CCN7c8cc(-c9ccccc9O)nnc8NC[C@H]7C6)CC5CO)CC4)cc3C2=O)C(=O)N1` (stereo partly drawn) [Example 235, 3-(6-(4-((2-(hydroxymethyl)-4-(((S)-2-(2-hydroxyphenyl)-5,6,6a,7,9,10-hexahydro-8H-pyrazino[1′,2′:4,5]pyrazino[2,3-c]pyridazin-8-yl)methyl)piperidin-1-yl)methyl)piperidin-1-yl)-1-oxoisoindolin-2-yl)piperidine-2,6-dione], in assay [1], the DC50 was less than 10 nM and the Dmax is more than 85%. For the same molecule, in assay [2], the DC50 was less than 10 nM and the Dmax was more than 85%.
For `O=C1CCC(N2C(=O)c3ccc(N4CCC(CN5CCC(CN6CCN7c8cc(-c9ccccc9O)nnc8NC[C@H]7C6)CC5CO)CC4)cc3C2=O)C(=O)N1` (stereo partly drawn) [Example 236, 2-(2,6-dioxopiperidin-3-yl)-5-(4-((2-(hydroxymethyl)-4-(((S)-2-(2-hydroxyphenyl)-5,6,6a,7,9,10-hexahydro-8H-pyrazino[1′,2′:4,5]pyrazino[2,3-c]pyridazin-8-yl)methyl)piperidin-1-yl)methyl)piperidin-1-yl) isoindoline-1,3-dione], in assay [1], the DC50 is less than 10 nM and the Dmax was more than 85%. Further, in assay [2], the DC50 is less than 10 nM and the Dmax is 75 to 85%.
Turning to `O=C1CCC(N2Cc3cc(OCCCN4CCC(N5CCN6c7cc(-c8ccccc8O)nnc7NC[C@H]6C5)CC4)ccc3C2=O)C(=O)N1` (stereo partly drawn) [Example 237, 3-(5-(3-(4-((S)-2-(2-hydroxyphenyl)-5,6,6a,7,9,10-hexahydro-8H-pyrazino[1′,2′:4,5]pyrazino[2,3-c]pyridazin-8-yl)piperidin-1-yl)propoxy)-1-oxoisoindolin-2-yl)piperidine-2,6-dione], the DC50 in assay [1] and in assay [2] was less than 10 nM each time. Further, the values for the Dmax in assay [1] and in assay [2] were more than 85% and 75 to 85%, respectively.
Take `O=C1CCC(N2Cc3cc(OCCN4CCC(N5CCN6c7cc(-c8ccccc8O)nnc7NC[C@H]6C5)CC4)ccc3C2=O)C(=O)N1` (stereo partly drawn) [Example 238]: in assay [1], the DC50 was less than 10 nM and the Dmax is more than 85%. In assay [2], the half-maximal degradation concentration (DC50) is less than 10 nM and the Dmax lay in the range of 75 to 85%.
For the molecule `O=C1CC[C@@H](N2Cc3cc(OCCN4CCC(N5CCN6c7cc(-c8ccccc8O)nnc7NC[C@H]6C5)CC4)ccc3C2=O)C(=O)N1` [Example 239, (R)-3-(5-(2-(4-((S)-2-(2-hydroxyphenyl)-5,6,6a,7,9,10-hexahydro-8H-pyrazino[1′,2′:4,5]pyrazino[2,3-c]pyridazin-8-yl)piperidin-1-yl)ethoxy)-1-oxoisoindolin-2-yl)piperidine-2,6-dione], in assay [1], the DC50 is less than 10 nM and the Dmax was more than 85%. Besides, in assay [2], the DC50 was less than 10 nM and the maximal degradation (Dmax) fell in the range of 50 to 75%.
With `O=C1CCC(N2C(=O)c3ccc(Nc4ccc(N5CCC(N6CCN7c8cc(-c9ccccc9O)nnc8NC[C@H]7C6)CC5)cc4)cc3C2=O)C(=O)N1` (stereo partly drawn) [Example 240, 2-(2,6-dioxopiperidin-3-yl)-5-((4-(4-((S)-2-(2-hydroxyphenyl)-5,6,6a,7,9,10-hexahydro-8H-pyrazino[1′,2′:4,5]pyrazino[2,3-c]pyridazin-8-yl)piperidin-1-yl)phenyl)amino) isoindoline-1,3-dione], the DC50 in assay [1] and in assay [2] was less than 10 nM in each case. Besides, the Dmax in assay [1] and in assay [2] was 75 to 85% throughout.
